Measured values as given in ChEMBL document CHEMBL3407329, “Looking for new antileishmanial derivatives in 8-nitroquinolin-2(1H)-one series” (Eur J Med Chem, 2015).

Columns and labels:
[1] = tested on: Leishmania donovani; test: Antileishmanial activity against Leishmania donovani MHOM/IN/00/DEVI promastigotes assessed as reduction in parasite growth incubated for 72 hrs by MTT assay; type: functional, organism-based
[2] = Selectivity index, ratio of CC50 for human HepG2 cells to IC50 for Leishmania donovani MHOM/IN/00/DEVI promastigotes; type: functional
[3] = Cytotoxicity against human HepG2 cells assessed as reduction in cell viability incubated for 72 hrs by MTT assay; type: cell-based
[4] = Cytotoxicity against human THP1 cells assessed as reduction in cell viability incubated for 72 hrs by MTT assay; type: cell-based; settings: THP-1 cells
[5] = tested on: Leishmania donovani; test: Antileishmanial activity against Leishmania donovani MHOM/IN/00/DEVI intracellular amastigotes infected in human THP1 cells assessed as reduction in parasite-infected macrophages incubated for 120 hrs by Giemsa staining based microscopy; type: functional, organism-based; settings: THP-1, 120 h

Question: Which results are given for `O=c1cc(Sc2ccccc2Cl)c2cccc([N+](=O)[O-])c2[nH]1`?
Answer: IC50 [1]: 3.5 µM; Ratio CC50/IC50 [2]: >0.4; CC50 at 72 h [3]: > 1.25 µM

Question: Which results are given for `Nc1cc(=O)[nH]c2c([N+](=O)[O-])cccc12`?
Answer: IC50 [1]: > 50 µM; CC50 at 72 h [3]: > 125 µM

Question: Which IC50 [1] does the source give for `O=c1cc(N2CCOCC2)c2cccc([N+](=O)[O-])c2[nH]1` here?
Answer: The IC50 was 42.1 µM.

Question: And the CC50 at 72 h [3]?
Answer: The CC50 at 72 h was 86.2 µM.

Question: What does the source list for `O=c1cc(N2CCNCC2)c2cccc([N+](=O)[O-])c2[nH]1`?
Answer: IC50 [1]: > 50 µM; CC50 at 72 h [3]: 2.4 µM

Question: With `CCCCNc1cc(=O)[nH]c2c([N+](=O)[O-])cccc12` as the compound, how does the IC50 [1] read?
Answer: The IC50 was 21.4 µM.

Question: And the CC50 at 72 h [3]?
Answer: Its CC50 at 72 h is 12.2 µM.

Question: Which IC50 [1] does the source give for `CC(C)(C)OC(=O)NCCOCCOCCNc1cc(=O)[nH]c2c([N+](=O)[O-])cccc12` here?
Answer: The IC50 was greater than 50 µM.

Question: And the CC50 at 72 h [3]?
Answer: Its CC50 at 72 h is 34.8 µM.

Question: Which results are given for `NCCOCCOCCNc1cc(=O)[nH]c2c([N+](=O)[O-])cccc12`?
Answer: IC50 [1]: > 50 µM; CC50 at 72 h [3]: 123 µM

Question: With `O=c1cc(Nc2ccccc2)c2cccc([N+](=O)[O-])c2[nH]1` as the compound, how does the IC50 [1] read?
Answer: Its IC50 is greater than 50 µM.

Question: And the CC50 at 72 h [3]?
Answer: Its CC50 at 72 h is 1.8 µM.

Question: For `O=c1cc(Sc2ccccc2)c2cccc([N+](=O)[O-])c2[nH]1`, which IC50 [1] is on record?
Answer: The IC50 was 9.3 µM.

Question: And the “Ratio CC50/IC50” value [2]?
Answer: Its value is greater than 1.3.

Question: What about the CC50 at 72 h [3] of the same compound?
Answer: Its CC50 at 72 h is greater than 12.5 µM.

Question: With `O=c1cc(Oc2ccccc2)c2cccc([N+](=O)[O-])c2[nH]1` as the compound, how does the IC50 [1] read?
Answer: Its IC50 is 14 µM.

Question: What about the “Ratio CC50/IC50” value [2] of the same compound?
Answer: The value was greater than 0.9.

Question: What about the CC50 at 72 h [3] of the same compound?
Answer: The CC50 at 72 h was greater than 12.5 µM.

Question: With `COc1ccccc1Sc1cc(=O)[nH]c2c([N+](=O)[O-])cccc12` as the compound, how does the IC50 [1] read?
Answer: The IC50 was greater than 10 µM.

Question: Which IC50 [1] does the source give for `COc1cccc(Sc2cc(=O)[nH]c3c([N+](=O)[O-])cccc23)c1` here?
Answer: Its IC50 is greater than 10 µM.

Question: For `COc1ccc(Sc2cc(=O)[nH]c3c([N+](=O)[O-])cccc23)cc1`, which IC50 [1] is on record?
Answer: Its IC50 is greater than 10 µM.

Question: Which results are given for `O=c1cc(Sc2ccccc2C(F)(F)F)c2cccc([N+](=O)[O-])c2[nH]1`?
Answer: IC50 [1]: 3.5 µM; Ratio CC50/IC50 [2]: >2.22; CC50 at 72 h [3]: > 7.8 µM

Question: With `O=c1cc(Sc2cccc(C(F)(F)F)c2)c2cccc([N+](=O)[O-])c2[nH]1` as the compound, how does the IC50 [1] read?
Answer: Its IC50 is greater than 10 µM.

Question: Which IC50 [1] does the source give for `O=c1cc(Sc2ccc(C(F)(F)F)cc2)c2cccc([N+](=O)[O-])c2[nH]1` here?
Answer: The IC50 was 3.8 µM.

Question: What about the “Ratio CC50/IC50” value [2] of the same compound?
Answer: The value was greater than 3.3.

Question: What about the CC50 at 72 h [3] of the same compound?
Answer: The CC50 at 72 h was greater than 12.5 µM.

Question: What about the CC50 at 72 h [4] of the same compound?
Answer: Its CC50 at 72 h is greater than 12.5 µM.

Question: And the IC50 [5]?
Answer: Its IC50 is greater than 12.5 µM.

Question: With `O=c1cc(Sc2cccc(Cl)c2)c2cccc([N+](=O)[O-])c2[nH]1` as the compound, how does the IC50 [1] read?
Answer: Its IC50 is greater than 10 µM.

Question: For `O=c1cc(Sc2ccc(Cl)cc2)c2cccc([N+](=O)[O-])c2[nH]1`, which IC50 [1] is on record?
Answer: The IC50 was greater than 10 µM.

Question: With `O=c1cc(Sc2ccc(Cl)cc2Cl)c2cccc([N+](=O)[O-])c2[nH]1` as the compound, how does the IC50 [1] read?
Answer: The IC50 was 3.8 µM.

Question: And the “Ratio CC50/IC50” value [2]?
Answer: Its value is greater than 2.1.

Question: What about the CC50 at 72 h [3] of the same compound?
Answer: Its CC50 at 72 h is greater than 7.8 µM.

Question: Which results are given for `O=c1cc(Sc2ccc(Br)cc2)c2cccc([N+](=O)[O-])c2[nH]1`?
Answer: IC50 [1]: 4.2 µM; Ratio CC50/IC50 [2]: >0.9; CC50 at 72 h [3]: > 3.9 µM

Question: With `O=c1cc(Sc2ccccc2F)c2cccc([N+](=O)[O-])c2[nH]1` as the compound, how does the IC50 [1] read?
Answer: Its IC50 is greater than 10 µM.

Question: Which IC50 [1] does the source give for `O=c1cc(Sc2cccc(F)c2)c2cccc([N+](=O)[O-])c2[nH]1` here?
Answer: The IC50 was greater than 10 µM.

Question: For `O=c1cc(Sc2ccc(F)cc2)c2cccc([N+](=O)[O-])c2[nH]1`, which IC50 [1] is on record?
Answer: The IC50 was greater than 10 µM.

Question: For `Cc1ccccc1Sc1cc(=O)[nH]c2c([N+](=O)[O-])cccc12`, which IC50 [1] is on record?
Answer: Its IC50 is greater than 10 µM.

Question: With `Cc1ccc(Sc2cc(=O)[nH]c3c([N+](=O)[O-])cccc23)cc1` as the compound, how does the IC50 [1] read?
Answer: Its IC50 is greater than 10 µM.

Question: With `Nc1ccccc1Sc1cc(=O)[nH]c2c([N+](=O)[O-])cccc12` as the compound, how does the IC50 [1] read?
Answer: Its IC50 is greater than 10 µM.

Question: Which IC50 [1] does the source give for `COc1ccccc1Oc1cc(=O)[nH]c2c([N+](=O)[O-])cccc12` here?
Answer: The IC50 was greater than 10 µM.

Question: Which IC50 [1] does the source give for `COc1cccc(Oc2cc(=O)[nH]c3c([N+](=O)[O-])cccc23)c1` here?
Answer: The IC50 was greater than 10 µM.

Question: For `COc1ccc(Oc2cc(=O)[nH]c3c([N+](=O)[O-])cccc23)cc1`, which IC50 [1] is on record?
Answer: The IC50 was greater than 10 µM.

Question: With `O=c1cc(Oc2ccccc2C(F)(F)F)c2cccc([N+](=O)[O-])c2[nH]1` as the compound, how does the IC50 [1] read?
Answer: Its IC50 is 10 µM.

Question: What about the “Ratio CC50/IC50” value [2] of the same compound?
Answer: The value was greater than 1.6.

Question: And the CC50 at 72 h [3]?
Answer: The CC50 at 72 h was greater than 15.6 µM.

Question: Which IC50 [1] does the source give for `O=c1cc(Oc2cccc(C(F)(F)F)c2)c2cccc([N+](=O)[O-])c2[nH]1` here?
Answer: The IC50 was greater than 10 µM.

Question: And the “Ratio CC50/IC50” value [2]?
Answer: The value was greater than 0.7.

Question: And the CC50 at 72 h [3]?
Answer: Its CC50 at 72 h is greater than 7.8 µM.

Question: What does the source list for `O=c1cc(Oc2ccc(C(F)(F)F)cc2)c2cccc([N+](=O)[O-])c2[nH]1`?
Answer: IC50 [1]: 8.4 µM; Ratio CC50/IC50 [2]: >0.9; CC50 at 72 h [3]: > 7.8 µM

Question: With `O=c1cc(Oc2ccccc2Cl)c2cccc([N+](=O)[O-])c2[nH]1` as the compound, how does the IC50 [1] read?
Answer: The IC50 was greater than 10 µM.

Question: For `O=c1cc(Oc2cccc(Cl)c2)c2cccc([N+](=O)[O-])c2[nH]1`, which IC50 [1] is on record?
Answer: Its IC50 is greater than 10 µM.

Question: With `O=c1cc(Oc2ccc(Cl)cc2)c2cccc([N+](=O)[O-])c2[nH]1` as the compound, how does the IC50 [1] read?
Answer: Its IC50 is 3.7 µM.

Question: What about the “Ratio CC50/IC50” value [2] of the same compound?
Answer: Its value is greater than 1.1.

Question: And the CC50 at 72 h [3]?
Answer: Its CC50 at 72 h is greater than 3.9 µM.

Question: What does the source list for `O=c1cc(Oc2ccccc2Br)c2cccc([N+](=O)[O-])c2[nH]1`?
Answer: IC50 [1]: 8.1 µM; Ratio CC50/IC50 [2]: >0.96; CC50 at 72 h [3]: > 7.8 µM

Question: Which IC50 [1] does the source give for `O=c1cc(Oc2cccc(Br)c2)c2cccc([N+](=O)[O-])c2[nH]1` here?
Answer: Its IC50 is greater than 10 µM.

Question: With `O=c1cc(Oc2ccc(Br)cc2)c2cccc([N+](=O)[O-])c2[nH]1` as the compound, how does the IC50 [1] read?
Answer: Its IC50 is greater than 5 µM.

Question: For `O=c1cc(Oc2ccccc2F)c2cccc([N+](=O)[O-])c2[nH]1`, which IC50 [1] is on record?
Answer: Its IC50 is greater than 10 µM.

Question: For `O=c1cc(Oc2cccc(F)c2)c2cccc([N+](=O)[O-])c2[nH]1`, which IC50 [1] is on record?
Answer: Its IC50 is greater than 10 µM.

Question: With `Cc1ccccc1Oc1cc(=O)[nH]c2c([N+](=O)[O-])cccc12` as the compound, how does the IC50 [1] read?
Answer: The IC50 was greater than 10 µM.

Question: Which IC50 [1] does the source give for `Cc1cccc(Oc2cc(=O)[nH]c3c([N+](=O)[O-])cccc23)c1` here?
Answer: The IC50 was greater than 10 µM.

Question: Which results are given for `Cc1ccc(Oc2cc(=O)[nH]c3c([N+](=O)[O-])cccc23)cc1`?
Answer: IC50 [1]: 6 µM; Ratio CC50/IC50 [2]: >4.2; CC50 at 72 h [3]: > 25 µM; CC50 at 72 h [4]: > 12.5 µM; IC50 [5]: > 12.5 µM

Question: With `Cc1cc(Oc2cc(=O)[nH]c3c([N+](=O)[O-])cccc23)ccc1Cl` as the compound, how does the IC50 [1] read?
Answer: Its IC50 is 6 µM.

Question: And the “Ratio CC50/IC50” value [2]?
Answer: The value was greater than 2.6.

Question: And the CC50 at 72 h [3]?
Answer: Its CC50 at 72 h is greater than 15.6 µM.

Question: Which CC50 at 72 h [4] does the source give for `COc1cccc2c1C(=O)c1c(O)c3c(c(O)c1C2=O)C[C@@](O)(C(=O)CO)C[C@@H]3O[C@H]1C[C@H](N)[C@H](O)[C@H](C)O1` [DOXORUBICIN] here?
Answer: The CC50 at 72 h was 0.008 µM.

Question: Which “Ratio CC50/IC50” value [2] does the source give for `N=C(N)c1ccc(OCCCCCOc2ccc(C(=N)N)cc2)cc1` [PENTAMIDINE] here?
Answer: Its value is 0.4.

Question: And the CC50 at 72 h [4]?
Answer: Its CC50 at 72 h is 31.2 µM.

Question: What about the IC50 [5] of the same compound?
Answer: The IC50 was greater than 20 µM.
